{"source": "patent US20240407991A1", "about": "“LOW PENETRATION SUNSCREEN COMPOSITIONS” (Johnson & Johnson Consumer Inc., priority 2023, published 2024)", "tested_on": "skin", "assay": "Skin permeation of UV filters and active agents after topical application", "conditions": "from Compositions 27 to 31, topically applied", "data": [{"smiles": "NC(=O)c1cccnc1", "note": "[niacinamide]", "values": [{"measurement": "skin permeation of cosmetically acceptable active agents", "value": "permeated the skin"}]}]}
